Measured values from patent publication US8822423B2 (Janssen Biotech, Inc., priority 2012, dated 2014).
Ends that are not written are not given here.

Tested on: WEHI-13VAR mouse fibroblasts
Experiment: In vitro bioactivity of infliximab in the presence of affinity peptides, MTT cell viability with TNF-α
Format: cell-based
Details: peptide 66 nanomolar, infliximab 0-66 nanomolar, overnight, FIG. 7
Procedure: In this experiment, we determined if the affinity peptides would interfere with the binding of tumor necrosis factor alpha (TNF-α) using WEHI-13VAR mouse fibroblasts.
WEHI-13VAR cells (mouse fibroblast cell line) were plated out in wells of a 96 well plate two hours prior to running the experiment at 50000 cells per well. […] After overnight incubation, cell viability was assessed using an MTT cell viability assay (R&D Systems, Inc., Minneapolis, Minn., cat #4890-050-K) following the product insert.

| Substance | effect on the viability of WEHI-13VAR mouse fibroblasts in the presence of infliximab |
| --- | --- |
| SEQ ID NO: 13: infliximab affinity peptide of FIG. 1; also chemically synthesized, biotinylated (AGPPCIVTQLSDLSFCAP; cysteine pairing not given here; also: biotinylated, position not given here) | minimal effect |

Tested on: infliximab
Experiment: Confirmatory phage ELISA, binding of phage-displayed peptides to infliximab
Details: FIG. 3, N value of 2
Procedure: 96-well black ELISA plates were coated with streptavidin (Columns 1 through 4), mAb competitor (Columns 5 and 6), hIgG (Columns 7 and 8), human serum albumin (Columns 9 and 10) and collagen (Columns 11 and 12), at a concentration of 5 micrograms/mL in PBS. Plates were incubated overnight at 4° C. Plates were washed 3 times with TBST using a plate washer. To the streptavidin-coated wells in columns 3 and 4, 100 microliters of a 5 micrograms/mL solution of biotinylated-infliximab was introduced and allowed to sit at room temperature for 30 minutes. To all other wells, 100 microliters of PBS was introduced. The plates were again washed 3 times with TBST using the plate washer. The wells were then blocked with 250 microliters of a 3% dehydrated milk suspension in TBST and allowed to sit at room temperature for a minimum of 1 hour. Using phage concentrations determined by the phage titrations, dilutions of the phage stock solutions were performed in a separate 96-well plate to result in phage concentrations of 10^10, 10^9, 10^8, 10^7, 10^6 and 10^5 phage/well. After blocking, the ELISA plate was washed 3 times with TBST and 100 microliters of the phage dilutions were introduced to the respective ELISA plates and allowed to sit at room temperature for a minimum of 1 hour. The ELISA plate was again washed 3 times with TBST using the plate washer and 100 microliters of an horseradish peroxidase (HRP)-conjugated Anti-M13 Phage Mab (1:5000 dilution in PBS) was introduced to each well. The plates were allowed to sit at room temperature for 1 hour after which time the plates were washed 3 times with TBST. Next, a peroxidase-based (POD) HRP-substrate was introduced to each well. The luminescence was read using a luminometer set with a gain of 150.

| Substance | binding to infliximab (phage ELISA, relative luminescence) |
| --- | --- |
| SEQ ID NO: 17: infliximab affinity peptide of FIG. 1, identified by pIX phage display (AGLLCAPSLDPDYILCDQ) | confirms the binding |
| SEQ ID NO: 19: infliximab affinity peptide of FIG. 1, identified by pIX phage display (AGPPYTVFVHL) | confirms the binding |
| SEQ ID NO: 7: infliximab affinity peptide of FIG. 1, identified by pIX phage display (AGTHCSYVLGRIECLP) | confirms the binding |
| SEQ ID NO: 4: infliximab affinity peptide of FIG. 1, identified by pIX phage display (AGVTCRMTEYGPMCPT) | confirms the binding |
| SEQ ID NO: 15: infliximab affinity peptide of FIG. 1, identified by pIX phage display (AGPPCAAAMAQAQLACTH) | confirms the binding |
| SEQ ID NO: 22: infliximab affinity peptide of FIG. 1, identified by pIX phage display (AGLCPELPHC) | confirms the binding |
| SEQ ID NO: 14: infliximab affinity peptide of FIG. 1, identified by pIX phage display (AGARCAPAFDANWLICSN) | confirms the binding |
| SEQ ID NO: 21: infliximab affinity peptide of FIG. 1, identified by pIX phage display (AGPCISDYFDPCH) | confirms the binding |
| SEQ ID NO: 20: infliximab affinity peptide of FIG. 1, identified by pIX phage display (AGYCISDYIDPCH) | confirms the binding |
| SEQ ID NO: 9: infliximab affinity peptide of FIG. 1, identified by pIX phage display (AGVACHSTGTNIYTCTY) | confirms the binding |
| SEQ ID NO: 13: infliximab affinity peptide of FIG. 1; also chemically synthesized, biotinylated (AGPPCIVTQLSDLSFCAP; cysteine pairing not given here; also: biotinylated, position not given here) | confirms the binding |
| SEQ ID NO: 6: infliximab affinity peptide of FIG. 1, identified by pIX phage display (AGEICYWHDTDWVCTE) | confirms the binding |
| SEQ ID NO: 3: infliximab affinity peptide of FIG. 1; also chemically synthesized, biotinylated (AGTYCHPDQLRNLCPV; cysteine pairing not given here; also: biotinylated, position not given here) | confirms the binding |
| SEQ ID NO: 11: infliximab affinity peptide of FIG. 1, identified by pIX phage display (AGSLCHTVGSGIYNCTK) | confirms the binding |
| SEQ ID NO: 12: infliximab affinity peptide of FIG. 1, identified by pIX phage display (AGIQCHDVGAGVVTCTY) | confirms the binding |
| SEQ ID NO: 23: infliximab affinity peptide of FIG. 1, identified by pIX phage display (AGPCPELPHCTY) | confirms the binding |
| SEQ ID NO: 16: infliximab affinity peptide of FIG. 1, identified by pIX phage display (AGVVCATPEWTWDPACAT) | confirms the binding |
| SEQ ID NO: 1: infliximab affinity peptide of FIG. 1, identified by pIX phage display (AGWTVAYVPPGPSYATS) | confirms the binding |
| SEQ ID NO: 18: infliximab affinity peptide of FIG. 1; wild type for site-directed mutagenesis (AG-XXXX-PWPPTAES-XXXX mutants) (AGLLCEPWPPTAESICRS) | confirms the binding |
| SEQ ID NO: 8: infliximab affinity peptide of FIG. 1, identified by pIX phage display (AGNYCHPDQLSQFCAR) | confirms the binding |
| SEQ ID NO: 5: infliximab affinity peptide of FIG. 1, identified by pIX phage display (AGNRCAYAAGTIQCFP) | confirms the binding |

Tested on: infliximab
Experiment: Infliximab affinity peptide ELISA, concentration dependent binding
Details: biotinylated synthesized peptides, 0.0028-500 micromolar, FIG. 5
Procedure: 96-well black ELISA plates were coated with goat anti-human Fc (Jackson Immunoresearch Laboratories, Inc., West Grove, Pa., cat. #109-006-098) at a concentration of 5 micrograms/mL in PBS. Plates were incubated overnight at 4° C. Plates were washed 3 times with TBST using a plate washer. […] To all other wells, 100 microliters of PBS was introduced. The plates were again washed 3 times with TBST using the plate washer. The wells were then blocked with 250 microliters of a 3% dehydrated milk suspension in TBST and allowed to sit at room temperature for a minimum of 1 hour. Biotinylated, chemically synthesized peptides having SEQ ID NO: 2, SEQ ID NO: 3, SEQ ID NO: 10, and SEQ ID NO: 13 were prepared using standard, automated Fluorenylmethyloxycarbonyl (Fmoc) solid phase peptide synthesis procedures. Each peptide solution for the assay was prepared from a 500 micromolar stock solution. The stock solution was serially diluted in assay buffer resulting in peptide concentrations of 500, 166.6, 55.5, 18.5, 6.2, 2.1, 0.69, 0.23, 0.076, 0.025, 0.0085 and 0.0028 micromolar.
After blocking, the ELISA plate was washed 3 times with TBST and 100 microliters of the serially diluted peptides were added to the corresponding wells of the ELISA plate and allowed to sit at room temperature for a minimum of 1 hour. […] The luminescence was read using a luminometer set with a gain of 150.

| Substance | rank according to concentration-dependent binding to infliximab |
| --- | --- |
| SEQ ID NO: 13: infliximab affinity peptide of FIG. 1; also chemically synthesized, biotinylated (AGPPCIVTQLSDLSFCAP; cysteine pairing not given here; also: biotinylated, position not given here) | SEQ ID NO: 2>SEQ ID NO: 10>SEQ ID NO: 3>SEQ ID NO: 13 |
| SEQ ID NO: 3: infliximab affinity peptide of FIG. 1; also chemically synthesized, biotinylated (AGTYCHPDQLRNLCPV; cysteine pairing not given here; also: biotinylated, position not given here) | SEQ ID NO: 2>SEQ ID NO: 10>SEQ ID NO: 3>SEQ ID NO: 13 |

Tested on: not given
Experiment: not given
Details: given by IV infusion; cited from earlier work

| Substance | half-life |
| --- | --- |
| infliximab: chimeric IgG1κ monoclonal antibody that blocks the action of TNF-alpha | approximately eight |
